Experimental data: patent US9006185B2, “Use of cell-permeable peptide inhibitors of the JNK signal transduction pathway for the treatment of various diseases” (Xigen Inflammation Ltd., priority 2008, dated 2015)

How the values were obtained:
[1] = system: Varicella-Zoster Virus (VZV); assay: VZV-BAC-Luc replication in HFFs, luciferase assay; format: cell-based, human; conditions: 24 h, 0.25, 0.5, 1.0 μM tested
Protocol: Virus yield was measured by luciferase assay. Samples were in triplicate and the average luminescence is shown; error bars represent the standard deviation of the mean.

hAPP Tg mice = assay: Morris Water Maze in hAPP transgenic mice; format: in vivo
Protocol: i) Introduction • The study was designed to evaluate the efficacy of the test substance (XG-102, SEQ ID NO: 11) on behavioral, biochemical and histological markers using 5 months (±2 weeks) old female hAPP Tg mice. Therefore, mice were treated every two or three weeks up to 4 months and in the end of the treatment period behavior was evaluated in the Morris Water Maze. At sacrifice brain, CSF and blood were collected. Aβ40 and Aβ42 levels were determined in four different brain homogenate fractions as well as in CSF of Tg mice. Plaque load was quantified in the cortex and the hippocampus of 8 Tg animals per treatment group.
ii) Animals • Female Tg mice with a C57BL/6×DBA background and an age of 5 months (±2 week) were randomly assigned to treatment groups 1 to 3 (n=12). […]
v) Morris Water Maze (MWM) • The Morris Water Maze (MWM) task was conducted in a black circular pool of a diameter of 100 cm. […] For the quantification of escape latency (the time [second]—the mouse needed to find the hidden platform and therefore to escape from the water), of pathway (the length of the trajectory [meter] to reach the target) and of the abidance in the goal quadrant a computerized tracking system was used. […] The camera detected the signal of the light emitting diode (LED), which was fixed with a little hairgrip on the mouse's tail. […]

CC(C)C[C@@H](NC(=O)[C@@H](Cc1ccccc1)NC(=O)[C@H]1CCCN1C(=O)[C@@H](CCC(N)=O)NC(=O)[C@H](NC(=O)[C@H]1CCCN1C(=O)[C@@H](CCCNC(=N)N)NC(=O)[C@@H](CO)NC(=O)[C@@H](CCC(N)=O)NC(=O)[C@H](N)CC(=O)O)C(C)C)C(=O)N[C@H](CC(N)=O)C(=O)N[C@H](CC(C)C)C(=O)N[C@@H](C(=O)N[C@@H](C(=O)N1CCC[C@@H]1C(=O)N[C@H](CCCNC(=N)N)C(=O)N[C@H](CCCCN)C(=O)N1CCC[C@@H]1C(=O)N[C@H](CCCNC(=N)N)C(=O)N1CCC[C@@H]1C(=O)N1CCC[C@@H]1C(=O)N[C@H](CCCNC(=N)N)C(=O)N[C@H](CCCNC(=N)N)C(=O)N[C@H](CCCNC(=N)N)C(=O)N[C@H](CCC(N)=O)C(=O)N[C@H](CCCNC(=N)N)C(=O)N[C@H](CCCNC(=N)N)C(=O)N[C@H](CCCCN)C(=O)N[C@H](CCCCN)C(=O)N[C@H](CCCNC(=N)N)C(=O)NCC(=O)O)[C@H](C)O)[C@H](C)O [XG-102]
concentration preventing VZV replication (lowest concentration tested) [1]: ≤ 0.25 µM | learning performance in the MWM (hAPP Tg mice; 0.1 mg/kg): a tendency to have worse learning performance between day 1 and day 4 | spatial learning in the MWM (hAPP Tg mice; 0.1 mg/kg every two weeks or 10 mg/kg every three weeks s.c., four months): remained widely uninfluenced | cytotoxicity at effective concentrations (murine macrophages): non-cytotoxic concentrations | LPS-induced TNFa, IL-6 and Rantes release (murine macrophages; murine macrophages): reducing LPS-induced TNFa, IL-6 and Rantes release in murine macrophages
